Patent publication US20050245563A1 (Millennium Pharmaceuticals, Inc., priority 2003, published 2005)
pIC50: −log10 of the molar value.

The compounds below were run against T1, human Chk1 (GST-Chk1) (Homo sapiens, UniProt O14757) (assay: Chk1 FlashPlate kinase assay). Settings: 8.7 nM GST-Chk1, 1 uM ATP, 33P incorporation into peptide substrate.
T1 construct: made in house; host or cells: insect cells (baculovirus, Bac-to-Bac)
T1 sequence (O14757 1-476): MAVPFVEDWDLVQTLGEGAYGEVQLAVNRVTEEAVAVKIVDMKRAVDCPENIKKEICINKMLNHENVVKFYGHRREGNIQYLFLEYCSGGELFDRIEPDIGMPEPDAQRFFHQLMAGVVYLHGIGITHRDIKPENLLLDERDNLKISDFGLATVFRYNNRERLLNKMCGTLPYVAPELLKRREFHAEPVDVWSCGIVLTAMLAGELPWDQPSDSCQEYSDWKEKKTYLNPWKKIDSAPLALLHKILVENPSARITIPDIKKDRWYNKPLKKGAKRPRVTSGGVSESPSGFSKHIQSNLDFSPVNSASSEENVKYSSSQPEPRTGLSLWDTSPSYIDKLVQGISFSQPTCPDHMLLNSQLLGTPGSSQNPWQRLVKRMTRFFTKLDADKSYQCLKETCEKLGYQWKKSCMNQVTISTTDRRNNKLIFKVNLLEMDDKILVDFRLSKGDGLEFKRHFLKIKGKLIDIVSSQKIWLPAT
Type: biochemical
Protocol: Recombinant human Chk1 was expressed as a fusion protein with glutathione S-transferase at the amino-terminus (GST-Chk1) using standard baculovirus vectors and (Bac-to-Bac®) insect cell expression system purchased from GIBCO™ Invitrogen. Recombinant protein expressed in insect cells was purified using glutathione sepharose (Amersham Biotech) using standard procedures described by the manufacturer.
Chk1 FlashPlate® Kinase Assay:
Assays (25 μL) contained 8.7 nM GST-Chk1, 10 mM MES, 0.1 mM ethylene glycol-bis(β-aminoethylether)-N,N,N′,N′-tetracetic acid (EGTA, pH 8.0), 2 mM DTT, 0.05% Tween 20, 3 uM peptide substrate (Biotin-ILSRRPSYRKILND-free acid) (SEQ ID NO: 1), 1 uM ATP, 0.4 uCi ^33P-γ-ATP (NEN), 4% DMSO. Reactions were incubated for 30 minutes at room temperature, terminated with 50 μL of 50 mM EDTA and 90 μL were transferred to streptavidin-coated FlashPlates® (NEN) and incubated for 1 hour at room temperature. Plates were washed with phosphate buffered salaine containing 0.01% Tween-20 and 10 mM sodium pyrophosphate. Plates were dried, sealed with Topseal™ (NEN) and amount of ^33P incorporated into the peptide substate measure using a Packard Topcount® NXT™ scintillation counter with standard settings.

SMILES | pIC50
Cc1[nH]nc2c1c(=O)n(CCCNC(=O)c1cccc(Cl)c1)c1ccccc21 [Example 71, 3-Chloro-N-[3-(3-methyl-4-oxo-2,4-dihydro-pyrazolo[4,3-c]quinolin-5-yl)-propyl]-benzamide] | > 6.00
Cc1[nH]nc2c1c(=O)n(CCCNC(=O)c1ccc(C(F)(F)F)cc1)c1ccccc21 [Example 72, N-[3-(3-Methyl-4-oxo-2,4-dihydro-pyrazolo[4,3-c]quinolin-5-yl)-propyl]-4-trifluoromethyl-benzamide] | > 6.00
Cc1n[nH]c2c1c(=O)n(CCCNC(=O)c1ccccc1)c1ccccc21 [Example 73, N-[3-(3-Methyl-4-oxo-1,4-dihydro-pyrazolo[4,3-c]quinolin-5-yl)-propyl]-benzamide] | > 6.00
Cc1[nH]nc2c1c(=O)n(CCCNC(=O)N1CCOCC1)c1ccccc21 [Example 74, Morpholine-4-carboxylic acid [3-(3-methyl-4-oxo-2,4-dihydro-pyrazolo[4,3-c]quinolin-5-yl)-propyl]-amide] | > 6.00
Cc1[nH]nc2c1c(=O)n(CCCNC(=O)c1ccc(Cl)cc1)c1cc(Cl)ccc21 [Example 75, 4-Chloro-N-[3-(7-chloro-3-methyl-4-oxo-2,4-dihydro-pyrazolo[4,3-c]quinolin-5-yl)-propyl]-benzamide] | > 6.00
Cc1[nH]nc2c1c(=O)n(CCCNC(=O)c1ccc(Cl)c(Cl)c1)c1ccccc21 [Example 76, 3,4-Dichloro-N-[3-(3-methyl-4-oxo-2,4-dihydro-pyrazolo[4,3-c]quinolin-5-yl)-propyl]-benzamide] | > 6.00
Cc1[nH]nc2c1c(=O)n(CCCNC(=O)c1ccc(N(C)C)cc1)c1ccccc21 [Example 78, 4-Dimethylamino-N-[3-(3-methyl-4-oxo-2,4-dihydro-pyrazolo[4,3-c]quinolin-5-yl)-propyl]-benzamide] | > 6.00
COc1ccc2c(c1)c1n[nH]c(C)c1c(=O)n2CCCNC(=O)OC(C)(C)C [Example 79, [3-(8-Methoxy-3-methyl-4-oxo-2,4-dihydro-pyrazolo[4,3-c]quinolin-5-yl)-propyl]-carbamic acid tert-butyl ester] | > 6.00
Cc1[nH]nc2c1c(=O)n(CCCNC(=O)OCc1ccccc1Cl)c1ccccc21 [Example 80, [3-(3-Methyl-4-oxo-2,4-dihydro-pyrazolo[4,3-c]quinolin-5-yl)-propyl]-carbamic acid 2-chloro-benzyl ester] | > 6.00
Cc1[nH]nc2c1c(=O)n(CCCNC(=O)CCCc1ccccc1)c1ccccc21 [Example 81, N-[3-(3-Methyl-4-oxo-2,4-dihydro-pyrazolo[4,3-c]quinolin-5-yl)-propyl]-4-phenyl-butyramide] | > 6.00
Cc1[nH]nc2c1c(=O)n(CCCNC(=O)c1cccnc1)c1ccccc21 [Example 82, N-[3-(3-Methyl-4-oxo-2,4-dihydro-pyrazolo[4,3-c]quinolin-5-yl)-propyl]-nicotinamide] | > 6.00
Cc1[nH]nc2c1c(=O)n(CCCNS(=O)(=O)c1ccccc1)c1ccccc21 [Example 83, N-[3-(3-Methyl-4-oxo-2,4-dihydro-pyrazolo[4,3-c]quinolin-5-yl)-propyl]-benzenesulfonamide] | > 6.00
Cc1[nH]nc2c1c(=O)n(CCCNC(=O)c1ccccc1Cl)c1ccccc21 [Example 84, 2-Chloro-N-[3-(3-methyl-4-oxo-2,4-dihydro-pyrazolo[4,3-c]quinolin-5-yl)-propyl]-benzamide] | > 6.00
Cc1[nH]nc2c1c(=O)n(CCCNC(=O)c1ccc(C(C)(C)C)cc1)c1ccccc21 [Example 85, 4-tert-Butyl-N-[3-(3-methyl-4-oxo-2,4-dihydro-pyrazolo[4,3-c]quinolin-5-yl)-propyl]-benzamide] | > 6.00
CC(=O)NCCCn1c(=O)c2c(C)[nH]nc2c2ccccc21 [Example 86, N-[3-(3-Methyl-4-oxo-2,4-dihydro-pyrazolo[4,3-c]quinolin-5-yl)-propyl]-acetamide] | > 6.00
Cc1n[nH]c2c1c(=O)n(CCNC(=O)Nc1ccccc1)c1ccccc21 [Example 87] | 4.70 to 6.00

SMILES | pIC50
COc1ccc(Cl)cc1NC(=O)NCCn1c(=O)c2c(C)n[nH]c2c2ccccc21 [Example 89, 1-(5-Chloro-2-methoxy-phenyl)-3-[2-(3-methyl-4-oxo-1,4-dihydro-pyrazolo[4,3-c]quinolin-5-yl)-ethyl]-urea] | 4.70 to 6.00
Cc1[nH]nc2c1c(=O)n(CCNC(=O)c1ccc(Cl)cc1)c1ccccc21 [Example 90, 4-Chloro-N-[2-(3-methyl-4-oxo-2,4-dihydro-pyrazolo[4,3-c]quinolin-5-yl)-ethyl]-benzamide] | 4.70 to 6.00
COc1ccc(C(=O)NCCn2c(=O)c3c(C)[nH]nc3c3ccccc32)cc1 [Example 91, 4-Methoxy-N-[2-(3-methyl-4-oxo-2,4-dihydro-pyrazolo[4,3-c]quinolin-5-yl)-ethyl]-benzamide] | 4.70 to 6.00
Cc1[nH]nc2c1c(=O)n(CCNC(=O)CCc1ccccc1)c1ccccc21 [Example 92, N-[2-(3-Methyl-4-oxo-2,4-dihydro-pyrazolo[4,3-c]quinolin-5-yl)-ethyl]-3-phenyl-propionamide] | 4.70 to 6.00
Cc1[nH]nc2c1c(=O)n(CCNC(=O)C1CCCCC1)c1ccccc21 [Example 93, Cyclohexanecarboxylic acid [2-(3-methyl4-oxo-2,4-dihydro-pyrazolo[4,3-c]quinolin-5-yl)-ethyl]-amide] | 4.70 to 6.00
Cc1[nH]nc2c1c(=O)n(CCNC(=O)C1CCCC1)c1ccccc21 [Example 94, Cyclopentanecarboxylic acid [2-(3-methyl-4-oxo-2,4-dihydro-pyrazolo[4,3-c]quinolin-5-yl)-ethyl]-amide] | 4.70 to 6.00
Cc1[nH]nc2c1c(=O)n(CCCNC(=O)C(Cc1ccc(F)cc1)NC(=O)OC(C)(C)C)c1ccccc21 (stereo not shown) [Example 95, {2-(4-Fluoro-phenyl)-1-[3-(3-methyl-4-oxo-2,4-dihydro-pyrazolo[4,3-c]quinolin-5-yl)-propylcarbamoyl]-ethyl}-carbamic acid tert-butyl ester] | 4.70 to 6.00
Cc1[nH]nc2c1c(=O)n(CCCNC(=O)C(Cc1ccc(Cl)cc1)NC(=O)OC(C)(C)C)c1ccccc21 (stereo not shown) [Example 96, {2-(4-Chloro-phenyl)-1-[3-(3-methyl-4-oxo-2,4-dihydro-pyrazolo[4,3-c]quinolin-5-yl)-propylcarbamoyl]-ethyl}-carbamic acid tert-butyl ester] | < 4.70
Cc1n[nH]c2c1c(=O)n(CCNC(=O)C(Cc1ccccc1)NC(=O)OC(C)(C)C)c1ccccc21 (stereo not shown) [Example 97, {1-[2-(3-Methyl-4-oxo-1,4-dihydro-pyrazolo[4,3-c]quinolin-5-yl)-ethylcarbamoyl]-2-phenyl-ethyl}-carbamic acid tert-butyl ester] | 4.70 to 6.00
Cc1[nH]nc2c1c(=O)n(CCCNC(=O)C(Cc1ccc(OC(C)(C)C)cc1)NC(=O)OC(C)(C)C)c1ccccc21 (stereo not shown) [Example 98, {2-(4-tert-Butoxy-phenyl)-1-[3-(3-methyl-4-oxo-2,4-dihydro-pyrazolo[4,3-c]quinolin-5-yl)-propylcarbamoyl]-ethyl}-carbamic acid tert-butyl ester] | 4.70 to 6.00
Cc1[nH]nc2c1c(=O)n(CCCNC(=O)CCC(NC(=O)OC(C)(C)C)C(=O)OC(C)(C)C)c1ccccc21 (stereo not shown) [Example 99, 2-tert-Butoxycarbonylamino-4-[3-(3-methyl-4-oxo-2,4-dihydro-pyrazolo[4,3-c]quinolin-5-yl)-propylcarbamoyl]-butyric acid tert-butyl ester] | 4.70 to 6.00
Cc1[nH]nc2c1c(=O)n(CCCNC(=O)CCCNC(=O)OC(C)(C)C)c1ccccc21 [Example 100, {3-[3-(3-Methyl-4-oxo-2,4-dihydro-pyrazolo[4,3-c]quinolin-5-yl)-propylcarbamoyl]-propyl}-carbamic acid tert-butyl ester] | 4.70 to 6.00
Cc1[nH]nc2c1c(=O)n(CCCNC(=O)CCNC(=O)OC(C)(C)C)c1ccccc21 [Example 101, {2-[3-(3-Methyl-4-oxo-2,4-dihydro-pyrazolo[4,3-c]quinolin-5-yl)-propylcarbamoyl]-ethyl}-carbamic acid tert-butyl ester] | 4.70 to 6.00
Cc1[nH]nc2c1c(=O)n(CCCNC(=O)CNC(=O)OC(C)(C)C)c1ccccc21 [Example 102, {[3-(3-Methyl-4-oxo-2,4-dihydro-pyrazolo[4,3-c]quinolin-5-yl)-propylcarbamoyl]-methyl}-carbamic acid tert-butyl ester] | 4.70 to 6.00
Cc1[nH]nc2c1c(=O)n(CCCNC(=O)C1CCC(=O)N1)c1ccccc21 (stereo not shown) [Example 103, 5-Oxo-pyrrolidine-2-carboxylic acid [3-(3-methyl-4-oxo-2,4-dihydro-pyrazolo[4,3-c]quinolin-5-yl)-propyl]-amide] | > 6.00
